This is an account of results in US4293560A, “Talampicillin 2-methoxyphenoxyacetate and pharmaceutical compositions containing it” (priority 1980, dated 1981).

Each structure is given as a SMILES string. Read-outs that look alike come from different tables or passages of the source.

For data set [1] the following is noted: white powder.
The conditions of data set [2]: rat, in vivo, po.
Method: (§1) The sodium ampicillin and the talampicillin hydrochloride have been administered in aqueous solution; the other talampicillin salts have been administered in aqueous suspension.
(§2) At 0.5, 1,2,4 and 6 hours after the administration the animals were sacrified and their blood was taken from the portal vein.
The conditions of data set [3]: cited from earlier work.
The nature of another data set: in vivo. The settings on record: rat, po, 100 mg/kg.

Method for in vivo: as §1, §2

On to `CC1(C)S[C@@H]2[C@H](NC(=O)[C@H](N)c3ccccc3)C(=O)N2[C@H]1C(=O)OC1OC(=O)c2ccccc21` (single isomer, unassigned) [talampicillin 2-methoxyphenoxyacetate, 2-methoxyphenoxyacetate of the phthalidyl ester of the 6-[D(-)-α-aminophenylacetamido]penicillanic acid], for which the storage entry in data set [1] is “do not show any problem of storage”. This compound also had an SBC in data set [2] of 30. Moreover, the “mcg/ml ampicillin, average ± standard error” value came to 23.4 ± 2.4 µg/mL in data set [2] (30 min); 10.2 ± 0.9 µg/mL in data set [2] (60 min); 3.8 ± 1.1 µg/mL in data set [2] (120 min); 1.7 ± 0.4 µg/mL in data set [2] (240 min); 1.6 ± 1 µg/mL in data set [2] (360 min).
Turning to `CC1(C)S[C@@H]2[C@H](NC(=O)[C@H](N)c3ccccc3)C(=O)N2[C@H]1C(=O)OC1OC(=O)c2ccccc21` (single isomer, unassigned) [talampicillin, phtahlidyl ester of the 6-[D(-)-α-aminophenylacetamido]penicillanic acid], in data set [3] (in vivo, po), the “blood levels of the parent ampicillin (in words)” value was “very high blood levels of the parent ampicillin”. Besides, in data set [3] (oral route, animals and man), the “absorption (in words)” value was “well absorbed when administered by oral route in animals and in man”.
As usually defined, the AUC is the area under the concentration-time curve, a measure of exposure. In the data set “in vivo”, `CC1(C)S[C@@H]2[C@H](NC(=O)[C@H](N)c3ccccc3)C(=O)N2[C@H]1C(=O)O` [sodium ampicillin, 6-[D(-)-α-aminophenylacetamido]penicillanic acid] gave an AUC at 6 h of 10700 ng·h/mL, a concentration at 0.5 h of 6400 ng/mL, a concentration at 1 h of 4600 ng/mL and a concentration at 2 h of 1400 ng/mL. Further, in the data set “in vivo”, the concentration at 4 h was 800 ng/mL and the concentration at 6 h came out at 200 ng/mL.
`CC1(C)S[C@@H]2[C@H](NC(=O)[C@H](N)c3ccccc3)C(=O)N2[C@H]1C(=O)OC1OC(=O)c2ccccc21` (some centres unmarked) [talampicillin napsylate, naphthalene 2-sulphonate of talampicillin]: the “mcg/ml ampicillin, average ± standard error” value in data set [2] (30 min) worked out at 14.8 ± 3.4 µg/mL; in data set [2] (60 min), 6.1 ± 1.8 µg/mL; in data set [2] (120 min) it was 2.7 ± 0.2 µg/mL; in data set [2] (240 min), 1.9 ± 0.6 µg/mL; in data set [2] (360 min) it was 1.1 ± 0.1 µg/mL.
